Reference: PMC10887108, “Novel Brain-Penetrant, Small-Molecule Tubulin Destabilizers for the Treatment of Glioblastoma” (Biomedicines, 2024)
Values joined by “and” are separate entries in the source; they are usually repeats but may differ in a detail not shown here. Identical values can stand only once.

Experiments:
[1] = tested on: GBM12 patient-derived GB cells; experiment: CellTiter-Glo viability assay, patient-derived GBM12 cells; format: cell-based; details: Homo sapiens, GBM12, 144 h, read-out: IC50 cell viability
Procedure: Short-term cultures of patient-derived cells GBM12, GBM15, GBM39 and GBM43 (used with permission Mayo Foundation) were seeded (1000 cells/well) in solid white Corning 384-well plates (Corning, NY, USA) and cultured overnight. Cells were treated with DMSO or RGN3067 in a 13-point dose response with a 1:3 serial dilution from an initial concentration of 100 μM. After 144 h, cell viability was measured using CellTiter-Glo (Promega, Madison, WI, USA). Data were normalized to DMSO control, and absolute IC50 values were calculated using GraphPad Prism 10 (San Diego, CA, USA).

[2] = Plasma pharmacokinetics after oral dosing; format: in vivo, CD-1 mice; details: mouse, 100 mg/kg oral, CD-1 male mice
Procedure: Pharmacokinetic studies were carried out by DMPK at WuXi AppTec, Inc. (Cranbury, NJ, USA). The pharmacokinetics of RGN3067 were evaluated in three male CD-1 mice. RGN3067 formulated as a 10 mg/mL solution (20% DMSO, 80% PEG400: PVP 95:5) was administered by oral gavage at a dose of 100 mg/kg. Plasma samples were drawn at 0.5, 1, 2, 4, 6, 10 and 24 h. Samples were analyzed by LC-MS/MS. A calibration curve was established using Waters ACQUITY UPLC BEH C18 column and formic acid in water and formic acid in acetonitrile as mobile phase. Tolbutamide and labetalol were used as internal standards for LC-MS/MS analysis. Compound was detected using electrospray ionization (ESI) positive detection. Pharmacokinetic parameters were calculated using the PO-noncompartmental linear model in Phoenix WinNonlin software v8.3 (Certara, Princeton, NJ, USA).

[3] = Maximum tolerated dose study; format: in vivo; details: 25, 50, 100 or 200 mg/kg oral twice daily for 5 days + 5 days observation
Procedure: ; 6 mice per group, including vehicle control). One mouse from each group was euthanized for PK analysis at 6 h post-initial dose. The weight and physical states of the animals were monitored during the 5 days of treatment and for 5 days following drug administration. […]

[4] = tested on: HMC3 microglial cells (non-tumorigenic); experiment: alamarBlue cell viability assay, HMC3; format: cell-based, human; details: HMC3, up to 10 μM
Procedure: Cells (100 µL/well) were seeded in 96-well tissue culture plates (Greiner Bio-One 650090; Kremsmünster, Austria). The plating density (cells/well) for each cell line was as follows: LN-18 (3000), U87 (4000), and HMC3 (5000). After overnight incubation, compounds were added to the cells (50 µL at 3× concentration, final 0.1% DMSO), and plates were incubated for 72 h. Cell viability was assessed by the addition of 25 µL of alamarBlue for a final concentration of 100 µM final concentration (Resazurin redox reagent, Sigma-Aldrich R7017; St. Louis, MO, USA). After a 4 h incubation, fluorescence was read on a CLARIOstar Plus plate reader (BMG Labtech, Ortenberg, Germany) at EX 570/EM 590 nm.

[5] = tested on: U87 cells (microtubule network); experiment: Immunofluorescent staining of cellular β-tubulin; format: cell-based, human; details: U87, compounds at their IC50 concentrations, 24 h
Procedure: U87 cells (4000/well) were plated in black 96-well plates (Perkin Elmer 6055302; Waltham, MA, USA) and grown overnight. Cells were treated with compounds for 24 h, fixed with 4% paraformaldehyde for 20 min, and permeabilized with FoxP3 permeabilization buffer (eBioscience/Thermo Fisher Scientific 00-5523-00; Waltham, MA, USA) for 10 min at RT. Cells were incubated with an anti-TUBB3 (Tuj1) antibody (1:1000; […] Technologies 60052; Vancouver, BC, Canada) labeled with Hoechst 33342 dye (1:2000; Thermo Fisher Scientific H3570; Waltham, MA, USA). Images (40×) were taken with an automated high-content imaging microscope (Operetta, Perkin Elmer; Waltham, MA, USA).

[6] = tested on: MDR1 (P-gp); experiment: MDR1-MDCK cellular permeability; format: in vitro ADME, canine; details: dog
Procedure: Cellular permeability was tested using the MDR1-MDCK (multidrug-resistant-1, Madin–Darby canine kidney) cell line. Donor solution was added to a 96-well plate (2 μL, 2 mM compound; 6 μL DMSO in 1992 μL of Hanks’ balanced salt solution [HBSS] buffer) and shaken at 1000 rpm for 10 min (final 0.4% DMSO). Transepithelial electrical resistance (TEER) values were used as a quality control check for monolayer integrity. At 3–5 days post-seeding, each MDCK II cell monolayer was tested to ensure the TEER value was ≥ 83 Ω⋅cm^2. The compound donor working solution was centrifuged (4000 rpm for 5 min) to remove any precipitated compound prior to loading donor chambers. Apical and basolateral plates were warmed at 37 °C for about 5 min prior to the initiation of transport (37 °C, 90 min).
Luciferin marker Lucifer Yellow (150 μL, 50 μM Lucifer Yellow in HBSS, pH 7.4) was added to the apical compartment, and transfer buffer (600 μL) was added to the receiver plate (basolateral compartment) and incubated at 37 °C for 60 min. Apical Lucifer Yellow concentrations for LYT0 and LYT60 were measured by a fluorometer (EX 485/EM 535 nm). Donor and receiver samples were analyzed by LC-MS. Metoprolol, enalapril, and quinidine were used as positive controls. The efflux ratio was calculated as the ratio of apparent permeability (basal-to-apical) and apparent permeability (apical-to-basal).

[7] = tested on: U87 glioblastoma cells; experiment: Cell cycle analysis (propidium iodide flow cytometry); format: cell-based, human; details: U87, 5 µM, 48 h
Procedure: […] Cells were washed in ice-cold PBS, resuspended in 1 mL of ice-cold 70% ethanol, and fixed overnight at −20 °C. Cells were centrifuged and resuspended in PBS containing RNAse A at a final concentration of 0.5 mg/mL (MilliporeSigma 10109142001; Burlington, MA, USA) and propidium iodide at a final concentration of 0.04 mg/mL (Sigma-Aldrich P4170, St. Louis, MO, USA) for 1 h at 37 °C. Nuclear staining was analyzed using a BD FACSCanto II flow cytometer (BD Biosciences; Franklin Lakes, NJ, USA) to determine cell cycle distribution. Cell cycle analysis was performed using the BD FACSDiva software v8.0.

[8] = tested on: colchicine binding pocket of β-tubulin in MCF-7 cells; experiment: EBI competition colchicine-binding site cellular assay; format: cell-based, human; details: MCF-7, compound 50 µM
Procedure: (C) EBI competition assay in MCF-7 breast cancer cells. […] Total proteins were lysed and subjected to Western blot analysis for β-tubulin. […] GAPDH was employed as the loading control. (D) Quantification of the Western blot in (C). […] Data are plotted as mean ± SD from at least three independent experiments. Analysis between groups in (B) was performed using a one-way ANOVA with Tukey’s multiple comparison test.

CO[C@H]1C[C@@H](C(=O)NC(=O)Nc2ccc(Oc3ccc(Cl)cn3)c(C)c2)C1 [RGN3067]
IC50 [1]: 148 nM | AUC [2]: 51200 ng·h/mL | Cmax [2]: 7810 ng/mL and 20 µM | Tmax [2]: 2 h | half-life [2]: 3.61 ± 1.94 h | body weight loss [3]: no statistically significant weight loss was observed | inhibition of cell viability [4]: does not significantly inhibit | effect on tubulin organization / MT network morphology [5]: varying levels of disruption of tubulin organization | efflux ratio at 90 min, 2 µM ([6]; Papp basal-to-apical / apical-to-basal): 0.61 | Papp at 90 min, 2 µM ([6]; read-out: apparent permeability coefficient): 22.7 ×10⁻⁶ cm/s | cells arrested at G2/M [7]: 73% | formation of the EBI–β-tubulin adduct [8]: reduces the formation of the EBI–β-tubulin adduct
